Columns and labels:
L929 cells = assay: ROS measurement by DHR fluorescence (flow cytometry); type: cell-based, mouse; conditions: L929, 25 μg/ml, 24 h
Description: (§1) The cells grown in the 6-well plate were stained with 1 μM dihydrorhodamine 123 (DHR) 20 min before the treatment with the test compound. At the end of the cultivation period the cells were detached, washed and resuspended in PBS. Analysis of ROS release was performed with a FACSCalibur and analyzed using CellQuest Pro software (Kaludjerovic 2005).

B16 cells = assay: as above; type: cell-based, mouse; conditions: B16, 25 μg/ml, 24 h
Description: as §1

[1] = system: L929 mouse fibrosarcoma cells; assay: MTT / CV cell viability test; type: cell-based; conditions: L929 cells, different concentrations, 24 h; cell number also reduced by CV
Description: (§2) Rat glioma cell line C6 was a kind gift from Dr. Pedro Tranque (Universidad de Castilla-La Mancha, Albacete, Spain), murine melanoma B16 cell line was a kind gift from Dr. Sinisa Radulovic (Institute for Oncology and Radiology of Serbia, Belgrade, Serbia) while mouse fibrosarcoma L929 was obtained from the European Collection of Animal Cell Cultures (Salisbury, UK). Cells were grown in HEPES-buffered RPM, 1640 medium supplemented with 5% FCS, 2 mM glutamine, 0.01% sodium pyruvate, 5×10^−5 M 2-mercaptoethanol and antibiotics (culture medium) at 37° C. in a humidified atmosphere with 5% CO2. After conventional trypsinization the cells were seeded at a concentration of 10^4 cells/well in a 96-well plate, of 2×10^5 cells/well in a 6-well plate or at 3×10^4 cells/well in a 4-well chamber slide, cultivated overnight, and then exposed to the test compound.
(§3) The cells were seeded in flat-bottom 96-well plates (10^4 cells/well) in a final volume of 200 μl of culture medium, incubated overnight, then treated with different concentrations of the test compound. After 24 h incubation, cell viability was assessed using 3-4,5-dimethylthiazol-2-yl)-2,5-diphenyltetrazolium bromide (MTT) test, based on the mitochondrial-dependent reduction of MTT to formazan, or by crystal violet (CV) staining of adherent cells, as previously described (Mijatovic et al CMLS 2004). The results are presented as % of control values obtained in untreated cultures. The rate of cell proliferation was also determined using flow cytometric analysis of cells labeled with CFSE (Kang 2005). The cells were detached, added with 1.5 μM CFSE and allowed to stand for 15 min at 37° C., then washed twice and seeded in 6-well plates at 2×10^5. The cells were treated with the compound for 24 and 48 h, trypsinized and washed twice. Finally, the cells were resuspended in PBS and analyzed by flow cytometry. Green fluorescence emission from cells illuminated with excitation light of 488 nm was measured with a FACS Calibur (BD, Heidelberg, Germany) and analyzed using the CellQuest software.

C6 rat astrocytoma cells = assay: MTT / CV cell viability test; type: cell-based; conditions: C6 cells, different concentrations, 24 h; cell number also reduced by CV
Description: as §2, §3

B16 mouse melanoma cells = assay: MTT / CV cell viability test; type: cell-based; conditions: B16 cells, different concentrations, 24 h; cell number also reduced by CV
Description: as §2, §3

diabetes = conditions: NOD mice with spontaneous or accelerated diabetes, or multiple low dose streptozotocin diabetes; cited from earlier work
C6 cells = assay: ROS measurement by DHR fluorescence (flow cytometry); type: cell-based, rat; conditions: C6, 25 μg/ml, 24 h
Description: as §1

With `O=C(O)CC1CC(c2ccccc2)=NO1` (racemic) [VGX-1027, (S,R)-3-phenyl-4,5-dihydro-5-isoxasole acetic acid, reference compound] the “intracellular production of ROS (DHR fluorescence)” value (from here on “intracellular production of ROS”) (L929 cells) was “did not release ROS”, the “intracellular production of ROS” value (B16 cells) was “did not release ROS” and the “cell viability (MTT, mitochondrial respiration)” value (from here on “cell viability”) [1] was “did not affect the viability”. The “cell viability” value (C6 rat astrocytoma cells) was “did not affect the viability”, the “cell viability” value (B16 mouse melanoma cells) was “did not affect the viability” and the diabetes progress (diabetes) was “significantly reduces diabetes progress”. The “intracellular production of ROS” value (C6 cells) was “did not release ROS”.

— patent publication US8207206B2, “(S,R)-3-phenyl-4,5 dihydro-5-isoxazole acetic acid-nitric oxide and use thereof as anti-cancer and antiviral agent” (OncoNOx APS, priority 2007, dated 2012)
